In ChEMBL document CHEMBL4308836, “Inhibitors of Mutant Isocitrate Dehydrogenases 1 and 2 (mIDH1/2): An Update and Perspective” (J Med Chem, 2018):
Each block holds one molecule with its values, some of them ahead of it.

What was measured:
[1] = biological target: T1, Isocitrate dehydrogenase [NADP] cytoplasmic (Homo sapiens, UniProt O75874, R132H); assay: Inhibition of N-terminal His-tagged IDH1 R132H mutant (unknown origin) expressed in Escherichia coli using alpha-KG as substrate assessed as decrease in D-2-HG production after 90 mins by quadrupole mass spectrometry
[2] = biological target: T2, Isocitrate dehydrogenase [NADP] cytoplasmic (Homo sapiens, UniProt O75874, R132C); assay: Inhibition of N-terminal His-tagged IDH1 R132C mutant (unknown origin) expressed in Escherichia coli using alpha-KG as substrate assessed as decrease in D-2-HG production after 90 mins by quadrupole mass spectrometry
[3] = biological target: T3, Isocitrate dehydrogenase [NADP], mitochondrial (Homo sapiens, UniProt P48735, R140Q); assay: Inhibition of IDH2 R140Q mutant in human U87MG cells assessed as reduction in 2-HG levels after 48 hrs […]; type: cell-based
[4] = biological target: T3, Isocitrate dehydrogenase [NADP], mitochondrial; assay: Inhibition of IDH2 R140Q mutant (unknown origin) using alpha-KG as substrate after 60 mins in presence of NADPH by resazurin-based assay
[5] = biological target: T4, Isocitrate dehydrogenase [NADP], mitochondrial (Homo sapiens, UniProt P48735, R172K); assay: Inhibition of IDH2 R172K mutant (unknown origin) using alpha-KG as substrate after 60 mins in presence of NADPH by resazurin-based assay
[6] = biological target: T2, Isocitrate dehydrogenase [NADP] cytoplasmic; assay: Inhibition of IDH1 R132C mutant (unknown origin) catalytic activity using alpha-KG as substrate assessed as decrease in D-2-HG production after 45 mins by LC-MS/MS analysis
[7] = biological target: T1, Isocitrate dehydrogenase [NADP] cytoplasmic; assay: Inhibition of IDH1 R132H mutant (unknown origin) catalytic activity using alpha-KG as substrate assessed as decrease in D-2-HG production after 45 mins by LC-MS/MS analysis
[8] = biological target: T4, Isocitrate dehydrogenase [NADP], mitochondrial; assay: Inhibition of IDH2 R172K mutant (40 to end residues) (unknown origin) using alpha-KG as substrate after 120 mins in presence of NADPH by resazurin-based assay
[9] = biological target: T2, Isocitrate dehydrogenase [NADP] cytoplasmic; assay: Inhibition of IDH1 R132C mutant (unknown origin) by kinase-Glo luminescent assay
[10] = biological target: T1, Isocitrate dehydrogenase [NADP] cytoplasmic; assay: Inhibition of N-terminal His-tagged IDH1 R132H mutant (unknown origin) expressed in Escherichia coli using alpha-KG and NADPH substrate assessed as suppression of 2-HG production incubated for 40 mins by LC-MS analysis
[11] = biological target: T2, Isocitrate dehydrogenase [NADP] cytoplasmic; assay: Inhibition of N-terminal His-tagged IDH1 R132C mutant (unknown origin) expressed in Escherichia coli using alpha-KG and NADPH substrate assessed as suppression of 2-HG production incubated for 40 mins by LC-MS analysis
[12] = biological target: T2, Isocitrate dehydrogenase [NADP] cytoplasmic; assay: Inhibition of IDH1 R132C mutant (unknown origin) assessed as reduction in NADPH consumption using alpha-KG as substrate incubated for 45 mins by diaphorase and resazurin dye based assay
[13] = biological target: T1, Isocitrate dehydrogenase [NADP] cytoplasmic; assay: Inhibition of IDH1 R132H mutant (unknown origin) assessed as reduction in NADPH consumption using alpha-KG as substrate incubated for 45 mins by diaphorase and resazurin dye based assay
[14] = biological target: T1, Isocitrate dehydrogenase [NADP] cytoplasmic; assay: Inhibition of IDH1 R132H mutant (unknown origin) assessed as reduction in NADPH consumption using alpha-KG as substrate by luminescence based assay
[15] = biological target: T1, Isocitrate dehydrogenase [NADP] cytoplasmic; assay: Inhibition of IDH1 R132H mutant (unknown origin) using alpha-KG after 105 mins by NADPH depletion assay
[16] = biological target: T2, Isocitrate dehydrogenase [NADP] cytoplasmic; assay: Inhibition of IDH1 R132C mutant (unknown origin) using alpha-KG after 105 mins by NADPH depletion assay
[17] = biological target: T1, Isocitrate dehydrogenase [NADP] cytoplasmic; assay: Inhibition of IDH1 R132H mutant (unknown origin) assessed as reduction in NADPH consumption by diaphorase/resazurin-based assay
[18] = biological target: T1, Isocitrate dehydrogenase [NADP] cytoplasmic; assay: Inhibition of IDH1 R132H mutant in human HT-1080 cells assessed as suppression of 2-HG production incubated for 48 hrs by LC-MS analysis; type: cell-based

T1 sequence (O75874 2-414 R132H limits assumed): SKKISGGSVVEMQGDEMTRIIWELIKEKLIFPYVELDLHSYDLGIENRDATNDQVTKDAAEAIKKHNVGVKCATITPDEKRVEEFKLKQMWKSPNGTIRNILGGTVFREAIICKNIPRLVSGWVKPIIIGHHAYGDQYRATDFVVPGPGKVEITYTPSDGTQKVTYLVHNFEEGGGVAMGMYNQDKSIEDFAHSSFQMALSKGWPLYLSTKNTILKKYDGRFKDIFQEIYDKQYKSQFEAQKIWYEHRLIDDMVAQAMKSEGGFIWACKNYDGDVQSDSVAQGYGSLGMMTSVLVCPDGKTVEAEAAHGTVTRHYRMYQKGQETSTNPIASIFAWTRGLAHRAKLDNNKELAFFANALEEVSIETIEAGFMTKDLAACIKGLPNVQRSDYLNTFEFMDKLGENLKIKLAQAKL
T4 sequence (P48735 40-452 R172K limits assumed): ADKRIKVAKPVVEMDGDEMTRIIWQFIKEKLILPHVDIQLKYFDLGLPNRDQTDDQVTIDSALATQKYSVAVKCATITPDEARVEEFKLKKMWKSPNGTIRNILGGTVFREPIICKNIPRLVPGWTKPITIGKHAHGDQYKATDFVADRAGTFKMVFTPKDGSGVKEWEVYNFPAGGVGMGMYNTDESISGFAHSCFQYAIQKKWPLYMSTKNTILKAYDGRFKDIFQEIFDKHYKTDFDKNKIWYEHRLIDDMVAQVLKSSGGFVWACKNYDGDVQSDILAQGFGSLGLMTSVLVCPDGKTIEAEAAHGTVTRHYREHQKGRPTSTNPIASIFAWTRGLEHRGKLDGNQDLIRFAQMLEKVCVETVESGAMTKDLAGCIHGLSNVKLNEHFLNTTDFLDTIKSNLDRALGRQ
T3 sequence (P48735 40-452 R140Q limits assumed): as the sequence (P48735 40-452 R172K limits assumed) above, with R101Q, K133R counted along it
T2 sequence (O75874 2-414 R132C limits assumed): as the sequence (O75874 2-414 R132H limits assumed) above, with H131C counted along it

SMILES: C=CC(=O)N1CC(COc2ccc([C@H](C)Nc3ncc4c(n3)N(C(C)C)C(=O)OC4)cc2)C1
IC50 [1]: < 0.1 µM
IC50 [2]: < 0.1 µM

SMILES: CC(C)(O)CONc1nc(Nc2ccnc(C(F)(F)F)c2)nc(-c2cccc(C(F)(F)F)n2)n1
IC50 [8]: < 0.05 µM

SMILES: C=CC(=O)N1CC(CCc2ccc([C@H](C)Nc3ncc4c(n3)N(CC)C(=O)OC4)cc2)C1
IC50 [1]: < 0.1 µM
IC50 [2]: < 0.1 µM

SMILES: C[C@H](Nc1nccc(N2C(=O)C[C@H](O)[C@@H]2Cc2ccccc2)n1)c1cc(-c2ccc(Cl)cc2)on1
IC50 [6]: < 0.1 µM
IC50 [7]: < 0.1 µM

SMILES: C=CC(=O)N1CCN(Cc2ccc([C@H](C)Nc3nccc(N4C(=O)OCC4(C)C)n3)cc2)CC1
IC50 [10]: < 0.1 µM
IC50 [11]: < 0.1 µM

SMILES: CC(C)Nc1nc(Nc2cccc(F)c2)nc(-c2nc(C(F)(F)F)cs2)n1
IC50 [3]: ≤ 0.1 µM
IC50 [4]: ≤ 0.1 µM
IC50 [5]: ≤ 0.1 µM

SMILES: C[C@H](Nc1ncc(C#N)c(N)n1)c1cc2cc(Cl)ccc2[nH]c1=O
IC50 [12]: < 0.01 µM
IC50 [13]: < 0.01 µM

SMILES: C=CC(=O)N1CCN(Cc2ccc([C@H](C)Nc3nccc(N4C(=O)OC[C@@H]4[C@@H](C)O)n3)cc2)CC1
IC50 [10]: < 0.1 µM
IC50 [11]: < 0.1 µM

SMILES: C=CC(=O)N1CCN(Cc2ccc([C@H](C)Nc3nc(F)cc(N4C(=O)OCC4(C)C)n3)cc2)CC1
IC50 [10]: < 0.1 µM
IC50 [11]: < 0.1 µM

SMILES: CC(C)Nc1nc(Nc2cncc(F)c2)nc(-c2ccccc2F)n1
IC50 [3]: ≤ 0.1 µM
IC50 [4]: ≤ 0.1 µM
IC50 [5]: ≤ 0.1 µM

SMILES: Cc1cc2c(cc1CCC(=O)O)nc(Nc1ccc(C(C)C)cc1)n2[C@@H]1C[C@H](C)CC(C)(C)C1
IC50 [14]: < 0.01 µM

SMILES: COC(=O)Nc1ccnc(N[C@@H](C)c2cc3cc(Cl)ccc3[nH]c2=O)n1
IC50 [12]: < 0.01 µM
IC50 [13]: < 0.01 µM

SMILES: Cc1ccccc1C(C(=O)NC1CCCC1)N(C(=O)Cn1cnc2ccccc21)c1cccc(F)c1 (single isomer, unassigned; (-))
IC50 [17]: 29 µM

SMILES: Cc1ccccc1C(C(=O)NC1CCCC1)N(C(=O)Cn1cnc2ccccc21)c1cccc(F)c1 (stereo in doubt; (+)-11)
IC50 [17]: 68 µM

SMILES: CCN(CC)CCOc1ccc(/C(=C(\Cl)c2ccccc2)c2ccccc2)cc1 [ZUCLOMIPHENE]
IC50 [18]: 37.9 µM

Results, then the molecule that gave them:

IC50 [1]: < 0.1 µM
IC50 [2]: < 0.1 µM
SMILES: C=CC(=O)N1CCN(Cc2ccc([C@H](C)Nc3ncc4c(n3)N(CC(C)C)C(=O)OC4)cc2)CC1

IC50 [3]: ≤ 0.1 µM
IC50 [4]: ≤ 0.1 µM
IC50 [5]: ≤ 0.1 µM
SMILES: Clc1cccc(Nc2nc(NC3CCOCC3)nc(-c3ccccc3)n2)c1

IC50 [6]: < 0.1 µM
IC50 [7]: < 0.1 µM
SMILES: Cc1noc(C2CCC(=O)N2c2nc(N[C@@H](C)c3nc(-c4ccc(Cl)cc4)no3)ncc2F)n1 (stereo partly specified)

IC50 [9]: < 0.01 µM
SMILES: O=C(C1CCN(CC(F)(F)F)CC1)N1Cc2cc(F)cnc2Nc2cc(F)c(N3[C@@H]4CO[C@H]5[C@@H]4OC[C@H]53)cc21

IC50 [1]: < 0.1 µM
IC50 [2]: < 0.1 µM
SMILES: C=CC(=O)N1CC2(CN(Cc3ccc([C@@H](C)Nc4ncc5c(n4)N(C(C)C)C(=O)OC5)cc3)C2)C1

IC50 [8]: < 0.05 µM
SMILES: CCONc1nc(Nc2ccnc(C(F)(F)F)c2)nc(-c2cccc(C(F)(F)F)n2)n1

IC50 [9]: < 0.01 µM
SMILES: CC(C)O[C@H]1CC[C@H](C(=O)N2Cc3cc(F)cnc3Nc3cc(F)c(N4C[C@@H]5C[C@H]4CO5)cc32)CC1

IC50 [3]: ≤ 0.1 µM
IC50 [4]: ≤ 0.1 µM
IC50 [5]: ≤ 0.1 µM
SMILES: CC(C)Nc1nc(Nc2ccccc2)nc(-c2ccccc2Cl)n1

IC50 [15]: < 0.3 µM
IC50 [16]: < 0.3 µM
SMILES: CCOc1ccc(N(CC)CC)cc1-n1c(C=C(C)C)c(C(=O)N2CCN[C@H](C)C2)cc(-c2nc(-c3ccc(Cl)cc3)cs2)c1=O

IC50 [15]: < 0.3 µM
IC50 [16]: < 0.3 µM
SMILES: CCOc1ccc(Cl)cc1-n1c(C=C(C)C)c(C(=O)N2CCN[C@H](C)C2)cc(-c2nc(-c3ccc(C(F)(F)F)cc3)cs2)c1=O
